Reference: paper PMC8752837, “Structural basis of BAK activation in mitochondrial apoptosis initiation” (Nature Communications, 2022)

What was measured:
I81R BAK = molecular target: T1, I81R BAK (Homo sapiens, UniProt Q16611, I81R); assay: Isothermal titration calorimetry with mutant BAK; assay type: binding; settings: KD could not be obtained by ITC or SPR
T1 construct: To generate tevBAK (residues 22–186), we cleaved off the histidine tag with TEV protease; His tag (vector pNIC28-Bsa4) (N, cleaved yes); made in house; host or cells: E. coli T7 Express pLac I/Y
T1 sequence (Q16611 22-186 I81R): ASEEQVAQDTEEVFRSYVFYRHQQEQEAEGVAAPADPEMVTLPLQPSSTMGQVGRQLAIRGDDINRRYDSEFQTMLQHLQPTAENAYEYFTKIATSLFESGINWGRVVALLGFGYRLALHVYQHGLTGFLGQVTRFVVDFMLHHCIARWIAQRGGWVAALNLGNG
Protocol: Protein samples were exchanged into 20 mM HEPES, 100 mM NaCl and 1 mM TCEP prior to the experiment. Titrations were performed by first injecting 0.5 μl of 250 or 500 µM BID BH3 peptides into a solution of 20 or 50 µM BAK followed by additional 2 μl injections. […] Results were analyzed using Origin software (OriginLab) provided by MicroCal. Binding constants (KD) and thermodynamic parameters were calculated from the average of two or three individual titrations by fitting the data to a single site binding model using a nonlinear least-squares fitting algorithm.

I81R(3) BAK = molecular target: T2, I81R(3) BAK (Homo sapiens, UniProt Q16611, I81R); assay: Liposome permeabilization assay: BH3 peptide activation of I81R(3) BAK receptor; assay type: biochemical; settings: 50 nM mutant BAK; Suppl. Fig. 4f
T2 construct: C-terminus truncated recombinant human BAK containing C-terminal 6× histidine tag (MEAS-BAK); made in house; host or cells: E. coli T7 Express pLac I/Y
T2 sequence (Q16611 1-186 I81R limits assumed): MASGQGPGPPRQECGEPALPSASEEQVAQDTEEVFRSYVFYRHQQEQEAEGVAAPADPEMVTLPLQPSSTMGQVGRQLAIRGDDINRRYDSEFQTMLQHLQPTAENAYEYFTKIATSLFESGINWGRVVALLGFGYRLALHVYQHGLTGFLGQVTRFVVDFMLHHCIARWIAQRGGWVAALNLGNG
Protocol: We next compared activation of mutant BAK receptors by WT BID BH3 and WT BAK BH3 peptide ligands. At concentrations above 1 µM, both peptide ligands would activate WT or V74A(1) BAK (Supplementary Figs. 3e, 4d, e, and Supplementary Table 1).
We performed liposome permeabilization assays as previously described[43]–[46]. […] (nickel salt) [DGS NTA(Ni), 2.5 μM final concentration in each assay] (Avanti Polar Lipids). We prepared 12.5 mM fluorophore; 8-aminonaphthalene-1, 3, 6-trisulfonic acid, disodium salt (ANTS) and 45 mM quencher; p-xylene-bis-pyridiniumbromide (DPX) in LUV buffer (10 mM HEPES pH 6.8, 200 mM KCl and 5 mM MgCl2). We mixed the lipid film in ANTS/DPX solution by vortexing and sonication (~15 min) followed by extrusion through polycarbonate membrane of 2 μm pore size (Avanti Polar lipids) to generate homogenous large unilamellar vesicles (LUVs). We separated LUVs from free ANTS/DPX by S500 size exclusion chromatography and stored them at 4 °C in the dark. We prepared peptide and protein dilutions in 96-well black flat bottom plates (Costar) kept on ice. ANTS release from permeabilized liposomes causes an increase in fluorescence, which we monitored at 37 °C for 90 min using a CLARIOSTAR microplate reader (BMG Labtech) set at excitation and emission wavelengths of 360 and 530 nm, respectively. We normalized the data relative to maximum and minimum fluorescence induced by 3% CHAPS and buffer controls, respectively. We quantified liposome permabilization by integrating area under curve (AUC) of normalized traces based on the Simpson’s equation, and analyzed that data in Excel and GraphPad Prism. AUC measurements reflect the kinetic and extent of liposome permeabilization and provide quantitative means for comparison between different experimental conditions (e.g., BAK mutants with gross or partial variation in activity). Variability in permeabilization of different liposomes is common and our analyses compare among conditions investigated with the same liposomes. […]

Row | SMILES | affinity for I81R BAK extrapolated by applying 2-fold difference compared to WT (I81R BAK) | liposome permeabilization by 50 nM I81R(3) BAK receptor (I81R(3) BAK)
1 | CC[C@H](C)[C@H](NC(=O)[C@H](CO)NC(=O)[C@H](CCCNC(=N)N)NC(=O)[C@H](CC(=O)O)NC(=O)[C@H](CCSC)NC(=O)[C@H](CO)NC(=O)[C@H](CC(=O)O)NC(=O)CNC(=O)[C@@H](NC(=O)[C@H](CCC(N)=O)NC(=O)[C@H](C)NC(=O)[C@H](CC(C)C)NC(=O)[C@H](Cc1c[nH]cn1)NC(=O)[C@H](CCCNC(=N)N)NC(=O)[C@H](C)NC(=O)[C@@H](NC(=O)[C@H](CC(N)=O)NC(=O)[C@H](CCCNC(=N)N)NC(=O)[C@@H](NC(=O)[C@@H](NC(=O)[C@H](CC(=O)O)NC(=O)[C@H](CCC(=O)O)NC(C)=O)[C@@H](C)CC)[C@@H](C)CC)[C@@H](C)CC)C(C)C)C(N)=O [WT BID BH3, reference compound] | ~ 130 µM | neither peptide ligands could promote liposome permeabilization
2 | CC[C@H](C)[C@H](NC(=O)[C@H](C)NC(=O)[C@H](CC(C)C)NC(=O)[C@H](CCC(N)=O)NC(=O)[C@H](CCCNC(=N)N)NC(=O)CNC(=O)[C@@H](NC(=O)[C@H](CCC(N)=O)NC(=O)CNC(=O)[C@H](CCSC)NC(=O)[C@@H](NC(=O)[C@H](CO)NC(=O)[C@H](CO)NC(C)=O)[C@@H](C)O)C(C)C)C(=O)N[C@H](C(=O)NCC(=O)N[C@@H](CC(=O)O)C(=O)N[C@@H](CC(=O)O)C(=O)N[C@H](C(=O)N[C@@H](CC(N)=O)C(=O)N[C@@H](CCCNC(=N)N)C(=O)N[C@@H](CCCNC(=N)N)C(=O)N[C@@H](Cc1ccc(O)cc1)C(N)=O)[C@@H](C)CC)[C@@H](C)CC [WT BAK BH3] | ~ 130 µM | neither peptide ligands could promote liposome permeabilization
